Values quoted from earlier work in US12564203B2, “Coating composition comprising pH-sensitive polymer” (CJ CHEILJEDANG CORPORATION, priority 2020, dated 2026).

Details: degree of hydrophilicity (hydrophobicity) of an amino acid

Row | SMILES | hydropathy index
1 | N=C(N)NCCC[C@H](N)C(=O)O [arginine] | −4.5
2 | CC[C@H](C)[C@H](N)C(=O)O [isoleucine] | 4.5
3 | NCCCC[C@H](N)C(=O)O [lysine] | −3.9
4 | CC(C)[C@H](N)C(=O)O [valine] | 4.2
